Experiment [1] deals with Dopamine D3 (Homo sapiens, UniProt P35462). The experiment can be described thus: Receptor binding, Dopamine D3. On the procedure: (§1) Receptor-ligand binding studies were performed as known to one skilled in the art. Compounds evaluated were LMP, the parent compound, the NDM LMP metabolite of LMP, and the sulfoxide metabolite of LMP. These studies verified receptor binding and affinity by the parent compound, as well as identified other potential receptors for the parent compound and its metabolites, and identified and verified receptors and receptor affinity for the metabolites.
(§2) Dopamine receptor affinity included binding to D1, D2, D3, D4, and D5 receptors. Serotonin receptor affinity included binding to 5-HT1A, 5-HT2A, 5-HT2B, 5-HT2, 5-HT5A, 5-HT6, and 5-HT7 receptors. Alpha adrenergic receptor affinity included binding to α1A, α1B, α1C, α2A, α2B, and α2C receptors. Muscarinic receptor affinity included binding to M1, M2, M3, M4, and M5 receptors. Binding to the histamine H1 receptor, the calcium ion channel receptor, and the sodium ion channel receptor were also evaluated. In each of the tables, the following abbreviations are used: LMP indicates the parent compound levomepromazine. NDM LMP indicates the N-desmethyl (N-desmethyl) metabolite. Sulfoxide indicates the sulfoxide metabolite. […] Ki (the inhibition constants of binding) indicate binding affinity.

For experiment [2], the target named is T1, Serotonin 5-HT2C (Homo sapiens, UniProt P28335).
T1 sequence (P28335 33-458): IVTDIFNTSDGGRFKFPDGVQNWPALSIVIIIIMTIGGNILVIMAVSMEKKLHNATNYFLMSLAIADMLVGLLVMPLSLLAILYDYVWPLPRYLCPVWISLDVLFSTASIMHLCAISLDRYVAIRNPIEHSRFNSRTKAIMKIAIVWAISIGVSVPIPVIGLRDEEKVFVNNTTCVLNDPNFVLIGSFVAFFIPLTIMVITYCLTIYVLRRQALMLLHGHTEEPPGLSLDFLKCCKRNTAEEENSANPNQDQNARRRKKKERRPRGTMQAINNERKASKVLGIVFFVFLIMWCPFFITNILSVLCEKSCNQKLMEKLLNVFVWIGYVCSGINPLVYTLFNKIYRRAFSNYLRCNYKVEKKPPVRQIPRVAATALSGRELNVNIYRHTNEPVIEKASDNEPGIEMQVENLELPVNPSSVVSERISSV
The experiment can be described thus: Receptor binding, Serotonin 5-HT2C. On the procedure:
as §1, §2

Experiment [3] addresses Histamine H1 (Homo sapiens, UniProt P35367). The experiment in a line: Receptor binding, Histamine H1. To be noted: for Ki: Histamine H1; for Relative Affinity: Histamine. How it is done:
as §1, §2

Experiment [4] deals with T2, Serotonin 5-HT1A (Homo sapiens, UniProt P08908).
T2 sequence (P08908 1-422): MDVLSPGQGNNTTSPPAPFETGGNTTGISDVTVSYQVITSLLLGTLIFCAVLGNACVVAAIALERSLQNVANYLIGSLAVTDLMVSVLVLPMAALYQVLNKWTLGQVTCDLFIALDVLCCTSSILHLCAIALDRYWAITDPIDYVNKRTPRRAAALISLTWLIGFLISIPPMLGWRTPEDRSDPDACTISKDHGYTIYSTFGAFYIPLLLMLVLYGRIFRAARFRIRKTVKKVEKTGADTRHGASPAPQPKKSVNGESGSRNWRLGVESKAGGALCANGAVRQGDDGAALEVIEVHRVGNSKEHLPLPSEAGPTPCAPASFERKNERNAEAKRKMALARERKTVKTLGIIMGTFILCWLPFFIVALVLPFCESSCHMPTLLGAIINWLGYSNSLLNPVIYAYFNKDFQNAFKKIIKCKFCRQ
The experiment in a line: Receptor binding, Serotonin 5-HT1A. How it is done: as §1, §2

For experiment [5], the target named is Calcium Channel. The experiment can be described thus: Receptor binding, Calcium Channel. How it is done: as §1, §2
For experiment [6], the target named is T3, Adrenergic α2C (Homo sapiens, UniProt P18825).
T3 sequence (P18825 1-462): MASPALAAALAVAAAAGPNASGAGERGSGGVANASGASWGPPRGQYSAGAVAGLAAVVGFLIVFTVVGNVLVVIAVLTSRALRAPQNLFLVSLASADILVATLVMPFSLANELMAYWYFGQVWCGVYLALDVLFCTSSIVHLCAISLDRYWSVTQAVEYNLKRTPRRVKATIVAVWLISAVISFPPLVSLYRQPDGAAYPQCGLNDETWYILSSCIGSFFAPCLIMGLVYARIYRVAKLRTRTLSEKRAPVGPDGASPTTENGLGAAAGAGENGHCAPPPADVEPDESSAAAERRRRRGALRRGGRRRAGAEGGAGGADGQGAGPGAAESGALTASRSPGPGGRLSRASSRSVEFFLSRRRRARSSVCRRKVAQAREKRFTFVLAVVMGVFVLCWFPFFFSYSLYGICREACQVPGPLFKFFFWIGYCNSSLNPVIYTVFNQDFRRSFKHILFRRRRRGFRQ
The experiment can be described thus: Receptor binding, Adrenergic α2C. How it is done: as §1, §2

Experiment [7] deals with T4, Muscarinic M1 (Homo sapiens, UniProt P11229).
T4 sequence (P11229 1-460): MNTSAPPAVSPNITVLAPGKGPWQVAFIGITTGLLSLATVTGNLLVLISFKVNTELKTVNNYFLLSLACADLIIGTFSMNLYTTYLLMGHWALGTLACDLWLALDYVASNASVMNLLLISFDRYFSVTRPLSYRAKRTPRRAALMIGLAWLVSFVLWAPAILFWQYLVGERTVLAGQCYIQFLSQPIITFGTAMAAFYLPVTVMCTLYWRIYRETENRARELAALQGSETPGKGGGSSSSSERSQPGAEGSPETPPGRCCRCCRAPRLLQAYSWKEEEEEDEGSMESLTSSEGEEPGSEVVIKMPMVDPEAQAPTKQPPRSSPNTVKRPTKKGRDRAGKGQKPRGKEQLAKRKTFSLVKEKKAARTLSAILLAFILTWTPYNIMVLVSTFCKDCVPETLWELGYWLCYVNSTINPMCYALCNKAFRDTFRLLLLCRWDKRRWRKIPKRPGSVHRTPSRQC
The experiment can be described thus: Receptor binding, Muscarinic M1. How it is done:
as §1, §2

Experiment [8] has as its target T5, Adrenergic α2B (Homo sapiens, UniProt P18089).
T5 sequence (P18089 1-450): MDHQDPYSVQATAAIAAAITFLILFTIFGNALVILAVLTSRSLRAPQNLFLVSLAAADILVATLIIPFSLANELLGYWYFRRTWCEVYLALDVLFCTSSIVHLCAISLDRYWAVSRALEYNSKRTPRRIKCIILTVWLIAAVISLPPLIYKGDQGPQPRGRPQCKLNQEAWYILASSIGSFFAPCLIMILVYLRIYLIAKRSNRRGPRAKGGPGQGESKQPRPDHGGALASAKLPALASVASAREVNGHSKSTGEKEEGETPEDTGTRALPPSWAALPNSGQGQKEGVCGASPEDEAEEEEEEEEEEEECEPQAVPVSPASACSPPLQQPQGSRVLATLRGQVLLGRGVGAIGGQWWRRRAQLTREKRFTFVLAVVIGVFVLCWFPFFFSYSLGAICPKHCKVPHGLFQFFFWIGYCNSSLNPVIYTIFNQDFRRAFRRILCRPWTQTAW
The experiment in a line: Receptor binding, Adrenergic α2B. How it is done:
as §1, §2

Chain of Dopamine D3 (P35462 whole entry): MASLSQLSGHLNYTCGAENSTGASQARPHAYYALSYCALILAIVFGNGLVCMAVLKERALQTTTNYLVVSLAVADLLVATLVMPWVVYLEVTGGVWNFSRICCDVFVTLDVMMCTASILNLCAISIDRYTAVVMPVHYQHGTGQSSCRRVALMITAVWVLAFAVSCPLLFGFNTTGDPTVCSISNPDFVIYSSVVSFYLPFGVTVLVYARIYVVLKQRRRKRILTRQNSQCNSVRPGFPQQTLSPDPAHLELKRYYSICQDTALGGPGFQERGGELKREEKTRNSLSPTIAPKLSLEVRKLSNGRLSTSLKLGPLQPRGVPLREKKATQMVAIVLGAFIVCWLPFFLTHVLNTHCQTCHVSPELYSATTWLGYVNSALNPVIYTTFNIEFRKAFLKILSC
Chain of Histamine H1 (P35367 whole entry): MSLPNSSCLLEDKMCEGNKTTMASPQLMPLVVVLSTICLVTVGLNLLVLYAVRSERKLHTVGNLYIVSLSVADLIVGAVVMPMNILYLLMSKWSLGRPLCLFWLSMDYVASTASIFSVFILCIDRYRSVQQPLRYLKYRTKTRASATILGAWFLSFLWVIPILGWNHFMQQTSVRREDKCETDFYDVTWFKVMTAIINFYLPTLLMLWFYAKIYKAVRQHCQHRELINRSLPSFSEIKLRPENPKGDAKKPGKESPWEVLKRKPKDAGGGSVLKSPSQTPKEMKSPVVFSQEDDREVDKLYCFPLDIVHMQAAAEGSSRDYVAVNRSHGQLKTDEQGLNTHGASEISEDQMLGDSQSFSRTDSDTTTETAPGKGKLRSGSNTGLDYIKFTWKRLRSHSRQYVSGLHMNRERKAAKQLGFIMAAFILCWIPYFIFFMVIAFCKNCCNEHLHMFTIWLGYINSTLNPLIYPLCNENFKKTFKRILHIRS

Take `COc1ccc2c(c1)N(C[C@H](C)CN(C)C)c1ccccc1S2` [LMP, Levomepromazine]: the Ki in experiment [1] is 4 nM; in experiment [2], 8 nM; in experiment [3], 2 nM; in experiment [4] it was 827 nM; in experiment [5], 407 nM; in experiment [6], 77 nM. Also, the inhibition constant Ki came out at 43 nM in experiment [7] and 25 nM in experiment [8].

On to `CNCC(C)CN1c2ccccc2Sc2ccc(OC)cc21` (stereo not drawn) [NDM LMP, R(+) 2-methoxy-10-2-methyl-3-monomethylaminopropyl phenothiazine], for which the Ki in experiment [1] was 5 nM; in experiment [2] it was 9 nM; in experiment [3], 2.1 nM; in experiment [4], 641 nM; in experiment [5], 49 nM; in experiment [6], 74 nM. The Ki amounted to 54 nM in experiment [7] and 48 nM in experiment [8]. For the same compound, the “Relative Affinity” value is on record as “LMP = NDM LMP = sulfoxide” in experiment [3] and “NDM LMP > LMP > sulfoxide” in experiment [5].

Take `COc1ccc2c(c1)N(C[C@H](C)CN(C)C)c1ccccc1[S+]2[O-]` (stereo partly shown) [Sulfoxide, levomepromazine sulfoxide]: the Ki is above 10000 nM in experiment [1]; 1980 nM in experiment [2]; 6.1 nM in experiment [3]; above 10000 nM in experiment [4]; 9090 nM in experiment [5]; above 10000 nM in experiment [6]. For the same compound, the inhibition constant (Ki) is 726 nM in experiment [7] and above 10000 nM in experiment [8]. The entries for the “Relative Affinity” value in experiment [3] and in experiment [5] were “LMP = NDM LMP = sulfoxide” and “NDM LMP > LMP > sulfoxide”, respectively.

Source of the values: patent publication US20050080076A1 (Xanodyne Pharmacal, Inc., priority 2003, published 2005).
